Experimental data: US4599331A, “Etianic acids as antiangiogenics” (Syntex (U.S.A.) Inc., priority 1984, dated 1986)
Several values for one entry are separate records, joined by “and”; a condition that tells them apart may be missing. Equal values may be shown once. Read-outs that look alike come from different tables or passages of the source.

Assays:
[1] = system: tyrosine aminotransferase (TAT); test: tyrosine aminotransferase (TAT) induction in HTC cells; type: cell-based, rat; settings: for Emax: from 10^-6 M down, relative to dexamethasone = 1, read-out: Efficacy (DEX = 1) TAT
Description: In this example, tyrosine aminotransferase (TAT) activity was determined by a spectrophotometric assay. This enzyme catalyzes the conversion of tyrosine to p-hydroxyphenylpyruvate. This example is a standard in vitro test for glucocorticoid activity.
Addition of base caused the conversion of p-hydroxyphenylpyruvate to p-hydroxybenzaldehyde, which was quantitatively measured by absorbance at 331 nm. HTC cells, the target cells for the compound tested were grown in DMEM+10% FCS. Subconfluent cell cultures were incubated with test compounds in 6 well Costar dishes for 24 or 48 hours. The cells were incubated in either serum-free DMEM or DMEM containing 10% FCS previously filtered over activated charcoal. The cells were harvested in PBS using a rubber policeman, then washed once in PBS by centrifugation and resuspended in a 0.3 ml lysis buffer of 10 mM Tris, 10 mM EDTA and 0.25M sucrose at pH 7.4. The cells were then lysed by three cycles of freeze-thawing using dry ice and a 37° C. waterbath and the cells debris was pelleted by centrifugation for 2 min at 12,000 9 in an Eppendorf centrifuge.
The supernatant was used for a protein determination using either E+K stain or BioRad protein assay kit and TAT activity. 0.1 ml TAT buffer having 50 mM KH2 PO4, 1 mM EDTA, 0.1 mM Dithiothereitol (DTT), and 5 mg/ml BSA at pH 7.6 and 0.1 ml cell extract were mixed in glass tubes. A prewarmed mixture of 200 parts of a 2.3 mg/ml tyrosine solution in 0.05M phosphate buffer, 100 parts 0.125M KH2 PO4, 10 parts of a 0.92 mg/ml and ketoglutarate solution and 1 part of a 0.04 mg/ml pyridoxalphosphate solution had been previously made up. […] of the prewarmed mixture was added to each tube and allowed to react at 37° C. for 15 min. The addition of 0.1 ml 7N […] stopped the reaction. The mixture was then immediately vortexed.
Aldehyde formation was allowed to proceed at 37° C. for 30 min. The amound of aldehyde formed was determined by UV spectroscopic means. Absorbance was read at 331 nm using a solution composed of 0.1 ml TAT buffer, 0.1 ml lysis buffer, 0.7 ml reaction mixture and 0.1 ml 7N KOH as a blank. Optical Density values are linearily corrected for protein content.
As the absolute amount of enzyme induction varies between experiments, results are expressed as percent of the maximal induction obtained with dexamethasone, which was run as a standard in each assay.
In this series, compounds were assayed from 10^-6 M down. Results are expressed in the TAT column of tables 1, and 2 as the induction ability of a compound as compared to dexamethasone; a compound may either be a partial inducer or a superinducer.

[2] = system: alkaline phosphatase (APb); test: alkaline phosphatase (APb) induction in LE II cells; type: cell-based, mouse; settings: for Emax: Mus musculus, Table 1, about 65 hours, relative to dexamethasone = 1, read-out: Efficacy (DEX = 1) Alk P
Description: This is another standard test for glucocorticoid activity.
LE II cells were grown in DMEM plus 10% FCS, at 37° C., in a 10% carbon dioxide atmosphere. Confluent monolayers of cells were trypsinized and seeded at a 1:15 dilution into 6-well Costar cluster dishes. […] In all experiments, DEX, at concentrations of 10^-9 to 10^-6 M, was added to some of the wells as a positive control.
Cell monolayers were washed with PBS and harvested by scraping with a rubber policeman into 400 μl of a buffer of 20 mM Tris-HCl at pH 7.4; 2 mM MgCl2; and 150 mM NaCl together with 1% Triton X-100. Samples were transferred into 1.5 ml Eppendorf centrifuge tubes and placed on ice. The tubes were first vortexed and then centrifuged in the Eppendorf minicentrifuge for 2 minutes. Duplicate 100 μl aliquots of supernatant were placed into 12×75 mm glass test tubes for determination of APb activity, while the rest was saved for protein determination. […] The tubes were incubated in a 37° C. water bath for between 20 to 50 minutes, depending on the activity of the samples. The APb reaction was terminated by the addition of 0.5 ml of […]. The tubes were mixed and 200 μl portions from each tube were transferred in triplicate to a 96 well microtiter plate. The OD410 nm of each well was then determined using a Dynatech plate reader.
[…] of the cell supernatant were transferred to 96 well microtiter plates for protein determination by a modification of the Lowry method. […] The plates were shaken for 1 hour and then the OD630 was determined using a Dynatech plate reader. The protein content for each sample was calculated by comparing the average OD630 reading with those obtained for a bovine serum albumin standard curve.
The alkaline phosphatase activity of in each sample was expressed as μmoles product formed per minute per mg protein in the Alk P column of Tables 1 and 2. Results are expressed as the induction ability of a compound as compared to dexamethasone.

[3] = system: Hamster Melanoma RPM1 1846 tumor cells; test: Inhibition of tumor growth (2 week assay); type: in vivo, Male Syrian Golden hamsters; settings: Table 3, dose 0.8 mg/kg; for Angiogenesis score: mean of score 0 (no new vessels) to 4 (full blown), untreated 3.1 [A], 2.9 [B]; for Tumor area Mn (mm^2): untreated 40.7 ± 16.2 [A], 27.5 ± 15.3 [B]
Description: (§1) In this example, the in vivo angiogenesis inhibition activity of etianic acid esters was tested. Male Syrian Golden hamsters, weighing between 120 g and 150 g were anaesthetized by intraperitoneal (I.P.) injection of a rodent anaesthetic mixture consisting of 50 mg/kg ketamine hydrochloride, 5 mg/kg xylazine and 1 mg/kg acepromazine. The left cheek pouch of each animal was everted with a pincet and pinned down to a plexiglass-rubber stage and observed through a Zeiss stereomicroscope. 10 μg of EGF or 3×10^5 Hamster Melanoma RPM1 1846 tumor cells in 10 μl Cibachrome Blue agarose (Amicon) were injected subcutaneously in the left lower quadrant of the pouch with a Hamilton syringe.
(§2) The pouch was then reinserted and animals were kept under observation until recovered from anaesthesia.
The animals were dosed daily with one test compound, starting one day before stimulus injection and continuing until observation. The test compounds were dissolved in a minimum volume of ethanol and diluted in sterile phosphate buffer solution. Then between 0.5 and 4 mg/kg of the test compound was injected subcutaneously.
(§3) Either five days or twelve days after the EGF or tumor cell injection, animals were anaesthetized by I.P. injection of the rodent anaesthetic mixture. The pouch was everted on the stage and examined under the stereomicroscope. Pictures were taken with a 35 mm using Kodak Tungsten 50 professional films.
(§4) The following subjective scoring was used for evaluating the photographs:
(§5) 1: minimal branching of vessels in the vicinity of injection site.
(§6) 2: new vessels reach injection site, area involved is minimal (<50% of area surrounding injection site).
(§7) 3: many vessels reach and cross injection site, new vessels are tortuous, (>50% of area surrounding injection site).
(§8) 4: "full blown", many tortuous vessels, leakages, hemorrhages, 100% of area around injection site, invasion of new vessels into non-injected areas.
(§9) In the case of the tumor, tumor size was also determined. (See Table 4)
(§10) Results are expressed as the mean of the score. The results are shown in Tables 1 and 2 are percent inhibition of HCP Stimulus.

Epidermal Growth Factor = test: hamster cheek pouch (HCP) angiogenesis inhibition, EGF stimulus; type: in vivo, Male Syrian Golden hamsters; settings: 10 μg EGF; for % Inhibition HCP Stimulus Epidermal Growth Factor: Table 1, between 0.5 and 4 mg/kg s.c. daily, each number independent result, average of six animals; for HCP % Inhibition Stimulus EGF: Table 2, compounds given daily at 0.4 mg/kg
Description: (§11) Each compound of the series was also tested for anti-angiogenic activity by an in vivo test that measured vascularization in a hamster's cheek pouch in response to either an angiogenic polypeptide growth factor, epidermal growth factor (EGF) or an induced […].
as §1, §2
(§12) The animals were dosed daily with one test compound, starting one day before stimulus injection and continuing until observation. The test compounds were dissolved in a minimum volume of ethanol and diluted in sterile phosphate buffer solution. […]
as §3, §4, §5, §6, §7, §8, §10

[4] = system: Hamster Melanoma RPM1 1846 tumor cells; test: hamster cheek pouch (HCP) angiogenesis inhibition, 1846 tumor cell stimulus; type: in vivo, Male Syrian Golden hamsters; settings: 3×10^5 tumor cells; for % Inhibition HCP Stimulus 1846: Table 1, between 0.5 and 4 mg/kg s.c. daily, each number independent result, average of six animals; for HCP % Inhibition Stimulus 1846: Table 2, compounds given daily at 0.4 mg/kg
Description: as §11, §1, §2, §12, §3, §4, §5, §6, §7, §8, §9, §10

[5] = Rattus norvegicus, Table 1, 24 or 48 hours
[6] = Rattus norvegicus, Table 2, 24 or 48 hours

Compound: C[C@@H]1C[C@H]2[C@@H]3CCC4=CC(=O)C=C[C@]4(C)[C@@]3(F)[C@@H](O)C[C@]2(C)[C@@]1(O)C(=O)CO [Dexamethasone, dexamethasone, reference compound]
- concentration inducing maximal TAT activity [1]: 10^-7 M
- EC50 ([1]; Rattus norvegicus): ~20 nM
- incubation time to maximum induction of alkaline phosphatase activity ([2]; preliminary experiments): 48 to 72 h

Compound: CCC(=O)O[C@]1(C(=O)OC)[C@@H](C)C[C@H]2[C@@H]3CC(F)C4=CC(=O)C=C[C@]4(C)[C@@]3(F)[C@@H](O)C[C@@]21C (stereo partly shown) [compound 2]
- Angiogenesis % Inh. [3]: 35%
- Tumor area % (inhibition of tumor growth) [3]: 58%
- Angiogenesis score [3]: 1.9
- Tumor area Mn (mm^2) [3]: 11.6 ± 10.3 mm^2
- % Inhibition HCP Stimulus Epidermal Growth Factor (Epidermal Growth Factor): 100%
- Emax [1, 5]: 80%
- % Inhibition HCP Stimulus 1846 [4]: 33% and 35%
- Emax [2]: 90%

Compound: COC(=O)[C@@]1(OC=O)[C@H](C)C[C@H]2[C@@H]3CC(F)C4=CC(=O)C=C[C@]4(C)[C@@]3(F)[C@@H](O)C[C@@]21C (stereo partly shown) [compound 5]
- % Inhibition HCP Stimulus Epidermal Growth Factor (Epidermal Growth Factor): -25%

Compound: COC(=O)[C@@]1(OC(C)=O)[C@H](C)C[C@H]2[C@@H]3CC(F)C4=CC(=O)C=C[C@]4(C)[C@@]3(F)[C@@H](O)C[C@@]21C (stereo partly shown) [compound 6]
- % Inhibition HCP Stimulus Epidermal Growth Factor (Epidermal Growth Factor): 23%
- Emax [1, 5]: 70%

Compound: CCCCC(=O)O[C@]1(C(=O)OC)[C@H](C)C[C@H]2[C@@H]3CC(F)C4=CC(=O)C=C[C@]4(C)[C@@]3(F)[C@@H](O)C[C@@]21C (stereo partly shown) [compound 10]
- Angiogenesis % Inh. [3]: 23%
- Tumor area % (inhibition of tumor growth) [3]: 45%
- Angiogenesis score [3]: 2.4
- Tumor area Mn (mm^2) [3]: 22.5 ± 13.7 mm^2
- % Inhibition HCP Stimulus Epidermal Growth Factor (Epidermal Growth Factor): 100%
- Emax [1, 5]: 90%
- % Inhibition HCP Stimulus 1846 [4]: 24%
- Emax [2]: 70%

Compound: CCC(=O)O[C@]1(C(=O)SC)[C@@H](C)C[C@H]2[C@@H]3CC(F)C4=CC(=O)C=C[C@]4(C)[C@@]3(F)C(O)C[C@@]21C (stereo partly shown) [compound 11]
- HCP % Inhibition Stimulus EGF (Epidermal Growth Factor): 100%
- Emax [1, 6]: 140%
- HCP % Inhibition Stimulus 1846 [4]: 28%

Compound: CCCC(=O)O[C@]1(C(=O)SC)[C@@H](C)C[C@H]2[C@@H]3CCC4=CC(=O)C=C[C@]4(C)[C@@]3(F)C(O)C[C@@]21C (stereo partly shown) [compound 12]
- HCP % Inhibition Stimulus EGF (Epidermal Growth Factor): 37%
- Emax [1, 6]: 130%

Compound: CCCC(=O)O[C@]1(C(=O)SC)[C@@H](C)C[C@H]2[C@@H]3CC(F)C4=CC(=O)C=C[C@]4(C)[C@@]3(F)[C@@H](O)C[C@@]21C (stereo partly shown) [compound 13]
- Angiogenesis % Inh. [3]: 42%
- Tumor area % (inhibition of tumor growth) [3]: 78%
- Angiogenesis score [3]: 1.8
- Tumor area Mn (mm^2) [3]: 9.1 ± 3 mm^2
- HCP % Inhibition Stimulus EGF (Epidermal Growth Factor; 0.4 mg/kg): 94% and 84%
- Emax [1, 6]: 90%
- HCP % Inhibition Stimulus 1846 ([4]; 0.4 mg/kg): 40% and 53% and 45%

Compound: CCCCC(=O)O[C@]1(C(=O)SC)[C@@H](C)C[C@H]2[C@@H]3CC(F)C4=CC(=O)C=C[C@]4(C)[C@@]3(F)C(O)C[C@@]21C (stereo partly shown) [compound 14]
- HCP % Inhibition Stimulus EGF (Epidermal Growth Factor; 0.4 mg/kg): 22% and 42%
- Emax [1, 6]: 60%
- HCP % Inhibition Stimulus 1846 [4]: 16%

Compound: CCC(=O)O[C@]1(C(=O)SC)[C@H](C)C[C@H]2[C@@H]3CCC4=CC(=O)C=C[C@]4(C)[C@@]3(F)C(O)C[C@@]21C (stereo partly shown) [compound 15]
- HCP % Inhibition Stimulus EGF (Epidermal Growth Factor): 30%

Compound: CCC(=O)O[C@]1(C(=O)SC)[C@H](C)C[C@H]2[C@@H]3CC(F)C4=CC(=O)C=C[C@]4(C)[C@@]3(F)C(O)C[C@@]21C (stereo partly shown) [compound 16]
- HCP % Inhibition Stimulus EGF (Epidermal Growth Factor): 46%
- Emax [1, 6]: 120%
- HCP % Inhibition Stimulus 1846 ([4]; 0.4 mg/kg): 25% and 35%

Compound: CCCC(=O)O[C@]1(C(=O)SC)[C@H](C)C[C@H]2[C@@H]3CC(F)C4=CC(=O)C=C[C@]4(C)[C@@]3(F)C(O)C[C@@]21C (stereo partly shown) [compound 18]
- Emax [1, 6]: 130%
- HCP % Inhibition Stimulus 1846 [4]: 16%
